Test results from patent publication US20210198277A1, “AMINE-SUBSTITUTED ARYL OR HETEROARYL COMPOUNDS” (Epizyme, Inc., priority 2016, published 2021).

Target: T1, human EHMT2 913-1193 (Homo sapiens, UniProt Q96KQ7)
T1 construct: recombinant purified human EHMT2 913-1193, Viva; purchased Viva
T1 sequence (Q96KQ7 913-1193): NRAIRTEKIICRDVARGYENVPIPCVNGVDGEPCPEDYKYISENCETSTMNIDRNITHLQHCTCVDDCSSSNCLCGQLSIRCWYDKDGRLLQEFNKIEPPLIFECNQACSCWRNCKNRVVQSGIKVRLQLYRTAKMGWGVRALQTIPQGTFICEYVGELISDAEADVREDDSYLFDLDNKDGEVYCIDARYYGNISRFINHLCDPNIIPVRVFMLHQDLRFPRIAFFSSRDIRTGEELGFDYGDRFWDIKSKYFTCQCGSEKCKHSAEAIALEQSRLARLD
Test: EHMT2 enzyme assay on histone peptide substrate (EHMT2 PEP)
Assay type: biochemical
Conditions: Table II; read-out: EHMT2 PEP (IC50 μM)
Method in brief: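 Inhibition is measured as reduced tritium incorporation into a biotinylated histone peptide from ^3H-SAM. The enzyme (0.031 nM) sees compound for 30 minutes before a 60-minute room-temperature reaction, which unlabeled SAM quenches prior to streptavidin Flashplate capture.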

Row | IC50 [µM] | SMILES
1 | < 0.1 | CNc1ccnc(Nc2ccc(OC)c(OCCCN3CCCC3)c2)n1 [Compound 1, N^2-(4-methoxy-3-(3-(pyrrolidin-1-yl)propoxy)phenyl)-N^4-methylpyrimidine-2,4-diamine]
2 | < 0.1 | COc1ccc(Nc2nccc(NCC3CCN(CC(F)F)CC3)n2)cc1OCCCN1CCCC1 [Compound 2, N^4-((1-(2,2-difluoroethyl)piperidin-4-yl)methyl)-N^2-(4-methoxy-3-(3-(pyrrolidin-1-yl)propoxy)phenyl)pyrimidine-2,4-diamine]
3 | < 0.1 | COc1ccc(Nc2nccc(NCC3CCOCC3)n2)cc1OCCCN1CCCC1 [Compound 3, N^2-(4-methoxy-3-(3-(pyrrolidin-1-yl)propoxy)phenyl)-N^4-((tetrahydro-2H-pyran-4-yl)methyl)pyrimidine-2,4-diamine]
4 | < 0.1 | COc1ccc(Nc2nccc(NCC3CCN(CC(F)(F)F)CC3)n2)cc1OCCCN1CCCC1 [Compound 4, N^2-(4-methoxy-3-(3-(pyrrolidin-1-yl)propoxy)phenyl)-N^4-((1-(2,2,2-trifluoroethyl)piperidin-4-yl)methyl)pyrimidine-2,4-diamine]
5 | 0.1 to 1 | COc1ccc(Nc2nccc(NC3CCOCC3)n2)cc1OCCCN1CCCC1 [Compound 5, N^2-(4-methoxy-3-(3-(pyrrolidin-1-yl)propoxy)phenyl)-N^4-(tetrahydro-2H-pyran-4-yl)pyrimidine-2,4-diamine]
6 | 0.1 to 1 | COc1ccc(Nc2nccc(NCC(=O)N3CCOCC3)n2)cc1OCCCN1CCCC1 [Compound 51]
7 | 1 to 10 | COc1ccc(Nc2nccc(NCC(=O)N(C)c3ccccc3)n2)cc1OCCCN1CCCC1 [Compound 52]
8 | 1 to 10 | COc1ccc(Nc2nccc(N3Cc4cn[nH]c4C3)n2)cc1OCCCN1CCCC1 [Compound 53]
9 | 0.1 to 1 | COc1ccc(Nc2nccc(NC3CCN(C(C)=O)CC3)n2)cc1OCCCN1CCCC1 [Compound 54]
10 | 0.1 to 1 | COc1ccc(Nc2ncc(C)c(NCC3CCN(C(C)=O)CC3)n2)cc1OCCCN1CCCC1 [Compound 55]
11 | 1 to 10 | COc1ccc(Nc2nccc(N(C)Cc3ccncc3)n2)cc1OCCCN1CCCC1 [Compound 56]
12 | 1 to 10 | COc1ccc(Nc2nccc(NCC3CCN(C(C)=O)CC3)n2)cc1COCCN1CC(F)C1 [Compound 57]
13 | 0.1 to 1 | c1cc(Nc2nccc(NCC3CCNCC3)n2)cc(OCCCN2CCCC2)c1 [Compound 88]
14 | < 0.1 | COc1ccc(Nc2nccc(NCC3CCNCC3)n2)cc1OCCCN1CCCC1 [Compound 90]

Same assay, conditions: Table III; read-out: EHMT2 PEP (IC50 μM)

Row | IC50 [µM] | SMILES
15 | 1 to 10 | CNc1ccnc(Nc2ccc(OC)c(OC[C@H](O)CN3CCCC3)c2)n1 (single isomer, unassigned) [Compound 376]
16 | 1 to 10 | CNc1ccnc(Nc2ccc(OC)c(OC[C@@H](O)CN3CCCC3)c2)n1 (single isomer, unassigned) [Compound 377]
17 | 1 to 10 | CNc1ccnc(Nc2ccc(OC)c(OCC3CCN(C)C3)c2)n1 (single isomer, unassigned) [Compound 415]
18 | < 0.1 | CNc1ccnc(Nc2ccc(OC)c(OCC3CCN(C)C3)c2)n1 (single isomer, unassigned) [Compound 416]
19 | 0.1 to 1 | CNc1cc(C)nc(Nc2ccc(OC)c(OCC3CCN(C)C3)c2)n1 (single isomer, unassigned) [Compound 417]
20 | < 0.1 | CNc1cc(C)nc(Nc2ccc(OC)c(OCC3CCN(C)C3)c2)n1 (single isomer, unassigned) [Compound 418]
21 | > 10 | CNc1cc(OC)nc(Nc2ccc(OC)c(OCCCN3CCCC3)c2)n1 [Compound 261, 6-methoxy-N^2-(4-methoxy-3-(3-(pyrrolidin-1-yl)propoxy)phenyl)-N^4-methylpyrimidine-2,4-diamine]
22 | > 10 | CNc1ccnc(Nc2ccc3c(c2)C(=O)N(CCN2CCCC2)CC3)n1 [Compound 264, 7-((4-(methylamino)pyrimidin-2-yl)amino)-2-(2-(pyrrolidin-1-yl)ethyl)-3,4-dihydroisoquinolin-1(2H)-one]
23 | > 10 | COc1ccc(Nc2cccc3[nH]ccc23)cc1OCCCN1CCCC1 [Compound 265, N-(4-methoxy-3-(3-(pyrrolidin-1-yl)propoxy)phenyl)-1H-indol-4-amine]
24 | 1 to 10 | COc1ccc(Nc2nccc3[nH]ccc23)cc1OCCCN1CCCC1 [Compound 266, N-(4-methoxy-3-(3-(pyrrolidin-1-yl)propoxy)phenyl)-1H-pyrrolo[3,2-c]pyridin-4-amine]
25 | < 0.1 | CNc1nccc(Nc2ccc(OC)c(OCCCN3CCCC3)c2)n1 [Compound 355]
26 | > 10 | CNc1cc(C)nc(Nc2ccc(F)c(OCCCN3CCCC3)c2)n1 [Compound 356]
27 | > 10 | CNc1nc(Nc2ccc(OC)c(OCCCN3CCCC3)c2)ncc1C#N [Compound 357]
28 | > 10 | CNc1nc(Nc2ccc(OC)c(OCCCN3CCCC3)c2)ncc1C(F)(F)F [Compound 358]
29 | > 10 | CNc1ncc(C(F)(F)F)c(Nc2ccc(OC)c(OCCCN3CCCC3)c2)n1 [Compound 359]
30 | 0.1 to 1 | CNc1nc(Nc2ccc(OC)c(OCCCN3CCCC3)c2)nc(C)c1F [Compound 360]
31 | 1 to 10 | CNc1ccnc(Nc2ccc(OC)c(OCCN3CCOCC3)c2)n1 [Compound 361]
32 | > 10 | CNc1cc(C(F)(F)F)nc(Nc2ccc(OC)c(OCCCN3CCCC3)c2)n1 [Compound 362]
33 | > 10 | CNc1ccnc(Nc2ccc3c(c2)N(C(=O)CCN(C)C)CC3)n1 [Compound 363]
34 | < 0.1 | CCc1cc(NC)nc(Nc2ccc(OC)c(OCCCN3CCCC3)c2)n1 [Compound 364]
35 | > 10 | COc1ccc(Nc2nccc(CNC3CCOCC3)n2)cc1OCCCNc1ccccc1 [Compound 365]
36 | 1 to 10 | COc1ccc(Nc2cnnc(NCC3CCN(C(C)=O)CC3)c2)cc1OCCCN1CCCC1 [Compound 366]
37 | > 10 | COc1ccc(Nc2nccc(NCC3CCOCC3)n2)cc1OC1CC2(C1)CN(C)C2 [Compound 367]
38 | > 10 | CNc1ccnc(Nc2ccc(F)c(OCCCN3CCCC3)c2)n1 [Compound 368]
39 | 0.1 to 1 | COc1ccc(Nc2nccc(N)n2)cc1OCCCN1CCCC1 [Compound 369]
40 | 0.1 to 1 | CNc1cnnc(Nc2ccc(OC)c(OCCCN3CCCC3)c2)c1 [Compound 370]
41 | 1 to 10 | CNc1cncc(Nc2ccc(OC)c(OCCCN3CCCC3)c2)n1 [Compound 371]
42 | < 0.1 | CNc1cc(Nc2cc(OCCCN3CCCC3)c(OC)cn2)ccn1 [Compound 372]

Row | IC50 [µM] | SMILES
43 | > 10 | COc1ccc(Nc2nccc3[nH]ncc23)cc1OCCCN1CCCC1 [Compound 373]
44 | 1 to 10 | COc1ccc(Nc2ccnc3[nH]ccc23)cc1OCCCN1CCCC1 [Compound 374]
45 | > 10 | CC(C)Nc1ccnc(Nc2cccc(OCCCN3CC[C@@H](F)C3)c2)n1 [Compound 375]
46 | 0.1 to 1 | COc1ccc(Nc2nccc(NC(C)C3CCOCC3)n2)cc1OCCCN1CCCC1 (stereo not drawn) [Compound 378]
47 | 0.1 to 1 | CNc1ccnc(Nc2ccc(OC)c(OCCCN3CCCC3)c2)c1 [Compound 379]
48 | 1 to 10 | CNc1ccnc(Nc2ccc3ccn(CCN4CCCC4)c(=O)c3c2)n1 [Compound 381]
49 | 0.1 to 1 | CNc1ccnc(Nc2ccc(OC)c(COCCN3CCCC3)c2)n1 [Compound 382]
50 | 1 to 10 | CNc1ccnc(Nc2cccc(COCCN3CCCC3)c2)n1 [Compound 383]
51 | > 10 | CNc1cc(C#N)nc(Nc2ccc(OC)c(OCCCN3CCCC3)c2)n1 [Compound 384]
52 | 0.1 to 1 | CCc1cc(NC)nc(Nc2ccc(OC)c(OCCCN3CC[C@@H](F)C3)c2)n1 [Compound 385]
53 | > 10 | CNc1ccnc(Nc2ccc3cnn(CCN(C)C)c3c2)n1 [Compound 386]
54 | 0.1 to 1 | CNc1ccnc(Nc2ccc(OC)c(OCCCN(C)C)c2)n1 [Compound 387]
55 | > 10 | CNc1ccnc(Nc2ccc3cnn(CCCN(C)C)c3c2)n1 [Compound 388, N^2-(1-(3-(dimethylamino)propyl)-1H-indazol-6-yl)-N^4-methylpyrimidine-2,4-diamine]
56 | > 10 | CNc1ccnc(Nc2ccc3c(C)nn(CCCN(C)C)c3c2)n1 [Compound 389]
57 | 0.1 to 1 | CNc1ccnc(Nc2ccc(OC)c(OCCCN3CCCCC3)c2)n1 [Compound 390]
58 | 0.1 to 1 | CNc1cc(C)nc(Nc2cccc(OCCCN3CCCC3)c2)n1 [Compound 391]
59 | 0.1 to 1 | COc1ccc(Nc2nccc(NCC(F)(F)F)n2)cc1OCCCN1CCCC1 [Compound 392]
60 | 0.1 to 1 | CNc1ccnc(Nc2ccc(OC)c(OCC3CCN(C)C3)c2)n1 (stereo not drawn) [Compound 393]
61 | > 10 | CCNC(=O)c1cccc(Nc2nccc(NC)n2)c1 [Compound 394]
62 | > 10 | CCNC(=O)c1cc(Nc2nccc(NC)n2)ccc1OC [Compound 395]
63 | > 10 | CCNC(=O)c1cc(Nc2nccc(NC)n2)ccc1Cl [Compound 396]
64 | > 10 | CNc1ccnc(Nc2cccc(N3CCC(N(C)C)C3)c2)n1 (stereo not drawn) [Compound 397]
65 | 0.1 to 1 | CNc1ccnc(Nc2ccc(Cl)c(OCCCN3CCCC3)c2)n1 [Compound 398]
66 | 1 to 10 | CNc1ccnc(Nc2cccc(N3CCC(N)C3)c2)n1 (stereo not drawn) [Compound 400]
67 | > 10 | COc1ccc(Nc2ccc3cn(C)nc3n2)cc1OCCCN1CCCC1 [Compound 402]
68 | > 10 | CNc1ccnc(Nc2ccc3cn(CCN(C)C)nc3c2)n1 [Compound 404, N^2-(2-(2-(dimethylamino)ethyl)-2H-indazol-6-yl)-N^4-methylpyrimidine-2,4-diamine]
69 | > 10 | CNc1ccnc(Nc2ccc3cn(CCCN(C)C)nc3c2)n1 [Compound 405]
